Measurements reported in patent US6355630B1, “Estra-1,3,5(10)-triene-7α-thioethers” (priority 1997, dated 2002).
Counter-ions that a name gives are not always drawn. Like-named read-outs stand apart in the source and are kept apart here.

Experiments:
rat uterus = assay: Rat uterotrophic/antiuterotrophic test procedure; format: in vivo; details: daily ip, 4-day immature rat
Method: Rat Uterotrophic/Antiuterotrophic Test Procedure
The estrogenic and antiestrogenic properties of the compounds were determined in a 4-day immature rat uterotrophic assay (as described previously by L. J. Black and R. L. Goode, Life Sciences, 26, 1453 (1980)). Immature Sprague-Dawley rats (female, 18 days old) were tested in groups of six. […] On day 4 the animals were sacrificed by CO2 asphyxiation and their uteri were removed and stripped of excess lipid, any fluid removed and the wet weight determined. A small section of one horn was submitted for histology and the remainder used to isolate total RNA in order to evaluate complement component 3 gene expression.
Representative compounds of this invention were evaluated in the rat uterotrophic/antiuterotrophic assay to determine their in vivo effects on the rat uterus.

human estrogen receptor = biological target: T1, human estrogen receptor (Homo sapiens, UniProt P03372); assay: In vitro estrogen receptor binding test procedure ([3H]-17β-estradiol competition)
T1 construct: expressed in transfected cells; host or cells: Chinese Hamster ovary (CHO) cells; ribosome-free cytosol
T1 sequence (P03372 1-595): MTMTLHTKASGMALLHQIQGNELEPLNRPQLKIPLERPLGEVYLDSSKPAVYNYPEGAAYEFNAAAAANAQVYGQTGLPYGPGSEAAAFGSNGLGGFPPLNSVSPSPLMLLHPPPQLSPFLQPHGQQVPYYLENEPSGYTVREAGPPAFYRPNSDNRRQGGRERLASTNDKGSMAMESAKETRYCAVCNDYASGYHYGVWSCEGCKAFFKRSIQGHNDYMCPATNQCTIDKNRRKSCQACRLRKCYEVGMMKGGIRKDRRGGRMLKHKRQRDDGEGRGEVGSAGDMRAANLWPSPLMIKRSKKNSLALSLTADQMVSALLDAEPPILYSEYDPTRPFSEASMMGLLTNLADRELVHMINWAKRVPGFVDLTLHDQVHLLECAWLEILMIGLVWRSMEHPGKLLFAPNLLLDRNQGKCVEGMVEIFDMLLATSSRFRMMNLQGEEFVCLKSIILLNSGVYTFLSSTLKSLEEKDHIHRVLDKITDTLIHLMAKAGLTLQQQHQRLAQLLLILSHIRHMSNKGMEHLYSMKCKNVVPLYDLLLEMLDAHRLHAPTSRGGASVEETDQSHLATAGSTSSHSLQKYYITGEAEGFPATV
Method: In vitro Estrogen Receptor Binding Test Procedure
Chinese Hamster ovary (CHO) cells overexpressing the estrogen receptor were grown in […] dishes in DMEM+10% dextran coated charcoal, stripped fetal bovine serum. The plates were washed twice with PBS and once with 10 mM Tris-HCl, pH 7.4, 1 mM EDTA. Cells were harvested by scraping the surface and then the cell suspension was placed on ice. Cells were disrupted with a hand-held motorized tissue grinder using two, 10-second bursts. The crude preparation was centrifuged at 12,000 g for 20 minutes followed by a 60 minute spin at 100,000 G to produce a ribosome free cytosol. The cytosol was then frozen and stored at −80° C. Protein concentration of the cytosol was estimated using the BCA assay with reference standard protein.
Binding Test Procedure Conditions
100 uG/100 uL of the receptor preparation was aliquoted per well. […] The plate was incubated at room temperature for 2.5 h. At the end of this incubation period 150 uL of ice-cold dextran coated charcoal (5% activated charcoal coated with 0.05% 69K dextran) was added to each well and the plate was immediately centrifuged at 99 g for 5 minutes at 4° C. 200 uL of the supernatant solution was then removed for scintillation counting. Samples were counted to 2% or 10 minutes, whichever occurs first. […] Also, wells containing radioactivity but no cytosol were processed with charcoal to estimate unremovable DPM of [^3H] […] 96-well plates were used because they have proven to bind the least amount of estradiol.
Counts per minute (CPM) of radioactivity were automatically converted to disintegrated per minute (DPM) by the Beckman LS 7500 Scintillation Counter using a set of quenched standards to generate a H# for each sample. To calculate the % of estradiol binding in the presence of 100 or 500 fold competitor the following formula was applied:
((DPM sample−DPM not removed by charcoal/(DPM estradiol−DPM not removed by charcoal))×100%=% of estradiol binding
For the generation of IC50 curves, % binding is plotted vs compound. […] Values are reported as IC50 values. […] For a description of these methods, see Hulme, E. C., ed. 1992. Receptor-Ligand Interactions: A Practical Approach. IRL Press, New York.(see especially chapter 8).
Compounds were tested for their ability to displace estradiol in a human ER-receptor preparation as described above.

Ishikawa uterine cells = assay: Ishikawa cell alkaline phosphatase test procedure; format: cell-based, human; details: for Alkaline phosphatase activity, percent of response related to 1 nM 17β-estradiol: 48 h; for Behaviour in the uterine cell line (agonist/antagonist): in words, from Table 2
Method: Ishikawa Cell Alkaline Phosphatase Test Procedure
Cell Maintenance and Treatment
Ishikawa cells were maintained in DMEM/F12 (50%:50%) containing phenol red+10% fetal bovine serum and the medium was supplemented with 2 mM Glutamax, 1% Pen/Strap and 1 mM sodium pyruvate. Five days prior to the beginning of each evaluation (treatment of cells) the medium was changed to phenol red-free DMEM/F12+10% dextran coated charcoal stripped serum. On the day before treatment, cells were harvested using 0.5% trypsin/EDTA and plated at a density of 5×10^4 cells/well in 96-well tissue culture plates. […] Cells were treated for 48 h prior to assay. […] Sample population for at each dose was n=8.
Alkaline Phosphatase Test Procedure
At the end of 48 h the media was aspirated and cells were washed three times with phosphate buffered saline (PBS); 50 μL of lysis buffer (0.1 M Tris-HCl, pH 9.8, 0.2% Triton X-100) was added to each well. Plates were placed at −80° C. for a minimum of 15 minutes. Plates were thawed at 37° C. followed by the addition of 150 μL of 0.1 M Tris-HCl, pH 9.8, containing 4 mM para-nitrophenylphosphate (pNPP) to each well (final concentration, 3 mM pNPP).
Absorbance and slope calculations were made using the KineticCalc Application program (Bio-Tek Instruments, Inc., Winooski, Vt.). Results are expressed as the mean +/−S.D. of the rate of enzyme reaction (slope) averaged over the linear portion of the kinetic reaction curve (optical density readings every 5 minutes for 30 minutes absorbance reading).
The four compounds were used as reference standards:
A description of these methods is described by Holinka, C. F., Hata, H., Kuramoto, H. and Gurpide, E. (1986) Effects of steroid hormones and antisteroids on alkaline phosphatase activity in human endometrial cancer cells (Ishikawa Line). Cancer Research, 46:2771-2774, and by Littlefield, B. A., Gurpide, E., Markiewicz, L., McKinley, B. and Hochberg, R. B. (1990) A simple and sensitive microtiter plate estrogen bioassay based on stimulation alkaline phosphatase in Ishikawa cells; Estrogen action of D5 adrenal steroids. Endocrinology, 6:2757-2762.

[1] = 1 uM compound + 1 nM E2, antagonist mode

SMILES | Uterine wet weight (rat uterus; 1 ug Cpd) | Uterine wet weight (rat uterus; 100 ug Cpd) | IC50 (human estrogen receptor; read-out: Receptor IC50) | Alkaline phosphatase activity, percent of response related to 1 nM 17β-estradiol (Ishikawa uterine cells; 0.01 uM compound, agonist mode) | Alkaline phosphatase activity, percent of response related to 1 nM 17β-estradiol (Ishikawa uterine cells; 0.1 uM compound, agonist mode) | Alkaline phosphatase activity, percent of response related to 1 nM 17β-estradiol (Ishikawa uterine cells; [1]) | Alkaline phosphatase activity, percent of response related to 1 nM 17β-estradiol (Ishikawa uterine cells; 1 uM compound, agonist mode) | Uterine wet weight (rat uterus; 1 ug E2 + 100 ug Cpd) | Behaviour in the uterine cell line (agonist/antagonist) (Ishikawa uterine cells) | Receptor IC50 (human estrogen receptor; displacement of [3H]17β-estradiol, CHO cell cytosol ER preparation) | Competition for the human estrogen receptor (human estrogen receptor; in words, compounds with 17β-acetate) | IC50 (human estrogen receptor)
C[C@]12CC[C@@H]3c4ccc(O)cc4C(=O)[C@@H](Sc4ccc(O)cc4)[C@H]3[C@@H]1CC[C@@H]2O [Example 2, (7α,17β) 3,17-Dihydroxy-7-(4-hydroxyphenyl)thio-estra-1,3,5(10)-triene-6-one] | 39.4 mg | 83.1 mg | 2500 nM | 7% | 14% | 87% | 42% | – | – | – | – | –
C[C@]12CC[C@@H]3c4ccc(O)cc4[C@@H](O)[C@@H](Sc4ccc(O)cc4)[C@H]3[C@@H]1CC[C@@H]2O [Example 3, (6α,7α,17β) 7-(4-Hydroxyphenyl)thio-estra-1,3,5(10)-triene-3,6,17-triol] | 62.4 mg | 99.9 mg | 10 nM | 86% | 88% | 97% | 75% | 106.1 mg | – | – | – | –
C[C@]12CC[C@@H]3c4ccc(O)cc4C[C@@H](Sc4ccc(O)cc4)[C@H]3[C@@H]1CC[C@@H]2O [Example 4, (7α,17β) 7-(4-Hydroxyphenyl)thio-estra-1,3,5(10)-triene-3,17-diol] | 37.9 mg | 45.4 mg | 300 nM | 7% | 47% | 6% | 57% | – | – | – | – | –
C[C@]12CC[C@@H]3c4ccc(O)cc4C(=O)[C@@H](Sc4ccc(Br)cc4)[C@H]3[C@@H]1CC[C@@H]2O [Example 6, (7α,17β) 7-(4-Bromophenyl)thio-3,17-dihydroxy-estra-1,3,5(10)-trien-6-one] | 29.0 mg | 97.7 mg | 1500 nM | 31% | 100% | 109% | 104% | – | fully efficacious agonists | – | – | –
C[C@]12CC[C@@H]3c4ccc(O)cc4C[C@@H](Sc4ccc(Br)cc4)[C@H]3[C@@H]1CC[C@@H]2O [Example 8, (7α,17β) 7-(4-Bromophenyl)thio-estra-1,3,5(10)-triene-3,17-diol] | 35.8 mg | 64.7 mg | 800 nM | 29% | 59% | 95% | 92% | – | – | – | – | –
CC12CCC3c4ccc(O)cc4CC(Sc4ccc(-c5ccc(C=CC(=O)O)cc5)cc4)C3C1CCC2O (stereo not drawn) [Example 13, (7α,17β) 7-{4-[4′-(2-Carboxy)-ethenyl]biphenyl}thio-estra-1,3,5(10)-triene-3,17-diol sodium salt] | 48.0 mg | 55.8 mg | 400 nM | 11% | 72% | 101% | 95% | – | – | – | – | –
COc1ccc2c(c1)CC(Sc1ccc(OCCN3CCCCC3)cc1)C1C2CCC2(C)C(OC(C)=O)CCC12 (stereo not drawn) [Example 14, (7α,17β) 3-Methoxy-7-{4-[2-(piperdin-1-yl)]ethoxyphenyl}thio-estra-1,3,5(10)-triene-17-ol-17-acetate] | – | – | – | 2% | 3% | 105% | 39% | – | – | No Binding | competed less effectively | –
CCCCN(C)C(=O)CCCCCCCCCCS[C@@H]1C(=O)c2cc(O)ccc2[C@H]2CC[C@]3(C)[C@@H](O)CC[C@H]3[C@H]12 [Example 16, (7α,17β) 7-[10-(N-Butyl-N-methyl-carbamoyl)-decyl]thio-3,17-dihydroxy-estra-1,3,5(10)-triene-6-one] | 41.3 mg | 72.5 mg | – | 7% | 22% | 66% | 42% | – | – | – | – | 300 nM
CCCCN(C)C(=O)CCCCCCCCCCS[C@H]1[C@@H]2[C@H](CC[C@]3(C)[C@@H](O)CC[C@@H]23)c2ccc(O)cc2[C@H]1O [Example 17, (6α,7α,17β) 7-[10-(N-Butyl-N-methyl-carbamoyl)-decyl]thio-estra-1,3,5(10)-triene-3,6,17-triol] | 36.5 mg | 64.2 mg | 400 nM | 0% | 0% | 28% | 1% | – | pure estrogen antagonists | – | – | –
